Assay results: the NIST ThermoML archive (doi:10.1021/acs.jced.7b00265)

Assay: molar heat capacity at constant pressure; mn = molality of the nth substance listed, in mol/kg
Conditions: 100 kPa, Liquid, DSC

O=S(=O)([O-])[O-].[Na+].[Na+] [sodium sulfate] + O
molar heat capacity at constant pressure [J/K/mol]
Conditions | 253.15 K | 258.15 K | 263.15 K | 268.15 K | 273.15 K | 278.15 K | 283.15 K | 288.15 K | 293.15 K | 298.15 K
m1 = 0.1012 | – | 76.36 | 75.81 | 75.43 | 75.23 | 75.08 | 74.99 | 74.95 | 74.93 | 74.97
m1 = 0.253 | – | 75.13 | 74.91 | 74.72 | 74.63 | 74.57 | 74.55 | 74.57 | 74.57 | 74.63
m1 = 0.501 | – | 74.17 | 74.13 | 74.09 | 74.11 | 74.15 | 74.2 | 74.28 | 74.32 | 74.4
m1 = 0.748 | 73.94 | 73.9 | 73.96 | 74.02 | 74.08 | 74.13 | 74.23 | 74.33 | 74.39 | 74.47
m1 = 1 | 73.97 | 74.01 | 74.15 | 74.21 | 74.31 | 74.39 | 74.49 | 74.62 | 74.68 | 74.76
m1 = 1.33 | 74.4 | 74.53 | 74.72 | 74.84 | 74.95 | 75.03 | 75.11 | 75.22 | 75.28 | 75.37
m1 = 1.517 | – | 74.71 | 74.81 | 75.03 | 75.22 | 75.33 | 75.52 | 75.65 | 75.77 | 75.8
m1 = 2.084 | – | – | – | – | – | – | 77.16 | 77.32 | 77.39 | 77.32

O=S(=O)([O-])[O-].[Mg+2] [magnesium sulfate] + O
molar heat capacity at constant pressure [J/K/mol]
Conditions | m1 = 0.0546 | m1 = 0.1089 | m1 = 0.213 | m1 = 0.526 | m1 = 1.001 | m1 = 1.502 | m1 = 2.012 | m1 = 2.495 | m1 = 2.775
248.15 K | – | – | – | – | – | – | 67.27 | 67.05 | 67.13
253.15 K | – | – | – | – | – | 68.74 | 67.94 | 67.75 | 67.86
258.15 K | – | – | – | 72.91 | – | 69.24 | 68.52 | 68.37 | 68.51
263.15 K | 76.21 | – | – | 72.94 | 70.95 | 69.74 | 69.11 | 68.98 | 69.12
268.15 K | 75.8 | 75.41 | 74.68 | 73 | 71.26 | 70.17 | 69.62 | 69.54 | 69.7
273.15 K | 75.56 | 75.23 | 74.58 | 73.08 | 71.54 | 70.59 | 70.1 | 70.03 | 70.24
278.15 K | 75.36 | 75.07 | 74.49 | 73.15 | 71.78 | 70.94 | 70.49 | 70.46 | 70.7
283.15 K | 75.24 | 74.96 | 74.44 | 73.23 | 71.98 | 71.23 | 70.88 | 70.89 | 71.11
288.15 K | 75.16 | 74.9 | 74.44 | 73.34 | 72.23 | 71.56 | 71.27 | 71.27 | 71.57
293.15 K | 75.09 | 74.85 | 74.42 | 73.44 | 72.41 | 71.83 | 71.57 | 71.63 | 71.94
298.15 K | 75.05 | 74.83 | 74.44 | 73.55 | 72.65 | 72.12 | 71.91 | 72.01 | 72.35

O=S(=O)([O-])[O-].[K+].[K+] [potassium sulfate] + O
molar heat capacity at constant pressure [J/K/mol]
Conditions | 253.15 K | 258.15 K | 263.15 K | 268.15 K | 273.15 K | 278.15 K | 283.15 K | 288.15 K | 293.15 K | 298.15 K
m1 = 0.1142 | – | – | 75.36 | 75.07 | 74.96 | 74.83 | 74.81 | 74.85 | 74.83 | 74.77
m1 = 0.201 | – | – | 74.67 | 74.5 | 74.48 | 74.33 | 74.39 | 74.45 | 74.46 | 74.43
m1 = 0.296 | – | – | 73.96 | 73.87 | 73.91 | 73.89 | 73.98 | 74.02 | 74.15 | 74.11
m1 = 0.415 | 73.75 | 73.5 | 73.32 | 73.32 | 73.42 | 73.4 | 73.55 | 73.65 | 73.77 | 73.77
m1 = 0.515 | – | 73.06 | 72.94 | 72.98 | 73.12 | 73.16 | 73.33 | 73.41 | 73.53 | 73.53
m1 = 0.606 | – | – | 72.64 | 72.74 | 72.9 | 72.92 | 73.14 | 73.21 | 73.33 | 73.33
